For this test, the system named is IL-17A gene expression. Nature of the test: Effect on IL-23-induced cytokine expression in mice. It is filed as in vivo, Balb/c mice. To be noted: Mus musculus, 24 h; 10 mg/kg oral, 30 min before and 8 hr after IL-23; ear tissue; versus the negative control group; read-out: percent inhibition of IL-17A gene expression. How it is done:
Effect on IL-23-Induced Cytokine Expression in Mice
A mouse IL-23 solution (500 ng/10 μL, prepared by Takeda Pharmaceutical Company Limited) or PBS (10 μL, negative control group) was administered intradermally in the ear of Balb/c mice (Charles River Japan, male, 7 weeks old). Twenty-four hr after administration, the ear was resected under isoflurane anesthesia. The test compound was suspended in 0.5% methylcellulose and administered orally 30 min before and 8 hr after IL-23 administration.
RNA extraction from the ear tissue and quantitative PCR were performed as follows. Specifically, ear tissue 5 mm in diameter was punched from an area of the resected ear centering on the IL-23 injection site, and the tissue was immersed in RNAlater (QIAGEN) for at least 18 hr. The RNAlater-treated ear tissue was homogenized in 350 μL of RLT buffer (RNeasy mini kit, QIAGEN) and treated (55° C., 10 min) with Proteinase K (QIAGEN). Total RNA was then extracted according to the RNeasy mini kit protocol. The RNA thus obtained was then reverse transcribed into cDNA using the High-Capacity RNA-to-cDNA kit (Applied Biosystems), and the amount of each gene expressions was measured by real-time PCR (Viia7™, Applied Biosystems). The PCR buffer used was TaqMan Fast Advanced Master Mix (Applied Biosystems), and TaqMan Gene Expression Assays (Applied Biosystems) Mm00439618_m1 (IL-17A) and 4352341E (β-actin) were used for each gene detection. The IL-17A gene expression level was normalized to the β-actin gene expression level, and the percent inhibition of IL-17A gene expression with the test compound was then calculated.
The results (percent inhibition of IL-17A gene expression with oral administration of the test compound) measured by the above-mentioned method are shown in Table 9.

In the case of `COc1ccc2c(c1)CCN(C(=O)[C@H]1C[C@@H](CC(=O)O)C1)[C@H]2C(=O)Nc1ccc([Si](C)(C)C)c(F)c1` [Example 33, (cis-3-(((1R)-1-((3-fluoro-4-(trimethylsilyl)phenyl)carbamoyl)-6-methoxy-3,4-dihydroisoquinolin-2(1H)-yl)carbonyl)cyclobutyl)acetic acid], the inhibition in vivo at 10 mg/kg was determined as 94%.

On to `COCc1ccc2c(c1)CCN(C(=O)[C@H]1C[C@@H](CC(=O)O)C1)[C@H]2C(=O)Nc1cc(F)c2c(c1)CCC2(C)C` [Example 19, (cis-3-(((1R)-1-((7-fluoro-1,1-dimethyl-2,3-dihydro-1H-inden-5-yl)carbamoyl)-6-(methoxymethyl)-3,4-dihydroisoquinolin-2(1H)-yl)carbonyl)cyclobutyl)acetic acid], for which the inhibition in vivo at 10 mg/kg amounted to 90%.

In the case of `CCOc1ccc2c(c1)CCN(C(=O)[C@H]1C[C@@H](C(=O)O)C1)[C@H]2C(=O)Nc1cc(F)c([Si](C)(C)C)c(F)c1` [Example 8, cis-3-(((1R)-1-((3,5-difluoro-4-(trimethylsilyl)phenyl)carbamoyl)-6-ethoxy-3,4-dihydroisoquinolin-2(1H)-yl)carbonyl)cyclobutanecarboxylic acid], the inhibition in vivo at 10 mg/kg was found to be 72%.

Regarding `COc1ccc2c(n1)CCN(C(=O)[C@H]1C[C@@H]1CC(=O)O)[C@H]2C(=O)Nc1cc(F)c([Si](C)(C)C)c(F)c1` [Example 13, ((1R,2S)-2-(((5R)-5-((3,5-difluoro-4-(trimethylsilyl)phenyl)carbamoyl)-2-methoxy-7,8-dihydro-1,6-naphthyridin-6(5H)-yl)carbonyl)cyclopropyl)acetic acid], the inhibition in vivo at 10 mg/kg stood at 91%.

Consider `CCOCC(C)(C)c1c(F)cc(NC(=O)[C@H]2c3ccc(OCC)cc3CCN2C(=O)[C@H]2C[C@@H](CC(=O)O)C2)cc1F` [Example 18, (cis-3-(((1R)-6-ethoxy-1-((4-(1-ethoxy-2-methylpropan-2-yl)-3,5-difluorophenyl)carbamoyl)-3,4-dihydroisoquinolin-2(1H)-yl)carbonyl)cyclobutyl)acetic acid], for which the inhibition in vivo at 10 mg/kg was 72%.

Take `COc1ccc2c(n1)CCN(C(=O)[C@H]1C[C@@H]1CC(=O)O)[C@H]2C(=O)Nc1cc(F)c2c(c1)CCC2(C)C` [Example 6, ((1R,2S)-2-(((5R)-5-((7-fluoro-1,1-dimethyl-2,3-dihydro-1H-inden-5-yl)carbamoyl)-2-methoxy-7,8-dihydro-1,6-naphthyridin-6(5H)-yl)carbonyl)cyclopropyl)acetic acid]: the inhibition in vivo at 10 mg/kg turned out to be 95%.

`COc1ccc2c(c1)CCN(C(=O)[C@H]1C[C@@H]1CC(=O)O)[C@H]2C(=O)Nc1cc(F)c([Si](C)(C)C)c(F)c1` [Example 29, ((1R,2S)-2-(((1R)-1-((3,5-difluoro-4-(trimethylsilyl)phenyl)carbamoyl)-6-methoxy-3,4-dihydroisoquinolin-2(1H)-yl)carbonyl)cyclopropyl)acetic acid]: the inhibition in vivo at 10 mg/kg was found to be 73%.

In the case of `COc1ccc2c(c1)CCN(C(=O)[C@H]1C[C@@H](C(=O)O)C1)[C@H]2C(=O)Nc1ccc([Si](C)(C)C)c(F)c1` [Example 32, cis-3-(((1R)-1-((3-fluoro-4-(trimethylsilyl)phenyl)carbamoyl)-6-methoxy-3,4-dihydroisoquinolin-2(1H)-yl)carbonyl)cyclobutanecarboxylic acid], the inhibition in vivo at 10 mg/kg was 83%.

As for `COc1ccc2c(c1)CCN(C(=O)C1CC(CC(=O)O)C1)[C@H]2C(=O)Nc1cc(F)c([Si](C)(C)C)c(F)c1` (stereo partly drawn) [Example 4, (3-(((1R)-1-((3,5-difluoro-4-(trimethylsilyl)phenyl)carbamoyl)-6-methoxy-3,4-dihydroisoquinolin-2(1H)-yl)carbonyl)cyclobutyl)acetic acid], the inhibition in vivo at 10 mg/kg was found to be 86%.

On to `COc1ccc2c(n1)CCN(C(=O)[C@H]1C[C@H](CC(=O)O)C1)[C@H]2C(=O)Nc1cc(F)c([Si](C)(C)C)c(F)c1` [Example 28, (trans-3-(((5R)-5-((3,5-difluoro-4-(trimethylsilyl)phenyl)carbamoyl)-2-methoxy-7,8-dihydro-1,6-naphthyridin-6(5H)-yl)carbonyl)cyclobutyl)acetic acid], for which the inhibition in vivo at 10 mg/kg came to 91%.

Turning to `COc1ccc2c(n1)CCN(C(=O)[C@H]1C[C@@H](C(=O)OCc3ccccc3)C1)[C@H]2C(=O)Nc1cc(F)c2c(c1)CCC2(C)C` [Example 36, benzyl cis-3-(((5R)-5-((7-fluoro-1,1-dimethyl-2,3-dihydro-1H-inden-5-yl)carbamoyl)-2-methoxy-7,8-dihydro-1,6-naphthyridin-6(5H)-yl)carbonyl)cyclobutanecarboxylate], the inhibition in vivo at 10 mg/kg worked out at 78%.

With `COc1ccc2c(c1)CCN(C(=O)[C@H]1C[C@@H](C(=O)O)C1)[C@H]2C(=O)Nc1cc(F)c([Si](C)(C)C)c(F)c1` [Example 5, cis-3-(((1R)-1-((3,5-difluoro-4-(trimethylsilyl)phenyl)carbamoyl)-6-methoxy-3,4-dihydroisoquinolin-2(1H)-yl)carbonyl)cyclobutanecarboxylic acid], the inhibition in vivo at 10 mg/kg came out at 57%.

Consider `COCc1ccc2c(c1)CCN(C(=O)[C@H]1C[C@H](CC(=O)O)C1)[C@H]2C(=O)Nc1cc(F)c2c(c1)CCC2(C)C` [Example 24, (trans-3-(((1R)-1-((7-fluoro-1,1-dimethyl-2,3-dihydro-1H-inden-5-yl)carbamoyl)-6-(methoxymethyl)-3,4-dihydroisoquinolin-2(1H)-yl)carbonyl)cyclobutyl)acetic acid], for which the inhibition in vivo at 10 mg/kg amounted to 74%.

With `COc1ccc2c(n1)CCN(C(=O)[C@H]1C[C@@H](C(=O)O)C1)[C@H]2C(=O)Nc1cc(F)c([Si](C)(C)C)c(F)c1` [Example 31, cis-3-(((5R)-5-((3,5-difluoro-4-(trimethylsilyl)phenyl)carbamoyl)-2-methoxy-7,8-dihydro-1,6-naphthyridin-6(5H)-yl)carbonyl)cyclobutanecarboxylic acid], the inhibition in vivo at 10 mg/kg was 85%.

`COc1ccc2c(n1)CCN(C(=O)[C@H]1C[C@@H](CC(=O)O)C1)[C@H]2C(=O)Nc1cc(F)c([Si](C)(C)C)c(F)c1` [Example 23, (cis-3-(((5R)-5-((3,5-difluoro-4-(trimethylsilyl)phenyl)carbamoyl)-2-methoxy-7,8-dihydro-1,6-naphthyridin-6(5H)-yl)carbonyl)cyclobutyl)acetic acid]: the inhibition in vivo at 10 mg/kg was found to be 96%.

Consider `CCOc1ccc2c(c1)CCN(C(=O)[C@H]1C[C@H](C(=O)O)C1)[C@H]2C(=O)Nc1cc(F)c([Si](C)(C)C)c(F)c1` [Example 9, trans-3-(((1R)-1-((3,5-difluoro-4-(trimethylsilyl)phenyl)carbamoyl)-6-ethoxy-3,4-dihydroisoquinolin-2(1H)-yl)carbonyl)cyclobutanecarboxylic acid], for which the inhibition in vivo at 10 mg/kg amounted to 57%.

`COc1ccc2c(n1)CCN(C(=O)[C@H]1C[C@H](CC(=O)O)C1)[C@H]2C(=O)Nc1cc(F)c2c(c1)CCC2(C)C` [Example 20, (trans-3-(((5R)-5-((7-fluoro-1,1-dimethyl-2,3-dihydro-1H-inden-5-yl)carbamoyl)-2-methoxy-7,8-dihydro-1,6-naphthyridin-6(5H)-yl)carbonyl)cyclobutyl)acetic acid]: the inhibition in vivo at 10 mg/kg was 99%.

The record behind these values is patent US9365520B2, “Heterocyclic compound” (Takeda Pharmaceutical Company Limited, priority 2014, dated 2016).
